Data from BindingDB's records for doi:10.1021/jm701311r (Georgia Institute of Technology, 2008).

Tests used:
Experiment in all cases: AE Enzyme Inhibition Assay
[1] = biological target: T1, Clan CD, family C13, asparaginyl endopeptidase-like cysteine peptidase (Trichomonas vaginalis (strain ATCC PRA-98 / G3), UniProt A2DYT2)
T1 sequence (A2DYT2 whole entry): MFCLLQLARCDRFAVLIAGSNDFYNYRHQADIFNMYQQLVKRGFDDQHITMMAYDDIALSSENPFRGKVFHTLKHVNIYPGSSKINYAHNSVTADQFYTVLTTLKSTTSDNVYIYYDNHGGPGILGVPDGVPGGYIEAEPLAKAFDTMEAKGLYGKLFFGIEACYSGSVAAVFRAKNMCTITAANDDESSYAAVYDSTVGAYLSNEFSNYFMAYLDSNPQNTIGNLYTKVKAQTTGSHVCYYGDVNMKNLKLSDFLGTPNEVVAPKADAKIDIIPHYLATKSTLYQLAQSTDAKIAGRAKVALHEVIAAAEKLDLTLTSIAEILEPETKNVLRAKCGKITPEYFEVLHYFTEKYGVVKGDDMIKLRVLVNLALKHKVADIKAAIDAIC
Method: (§1) AE activity in the induction medium was measured with the substrate Cbz-Ala-Ala-Asn-AMC. In a black 96-well microtiter plate, aza-peptidyl inhibitors were added to the reaction buffer containing the activated enzyme, and allowed to incubate at room temperature for 20 min. Then, substrate Cbz- Ala-Ala-Asn-AMC was added and the reaction allowed proceeding for 20 min. Plotting the relative fluorescence units (RFU)/min against the inhibitor concentration (uM) permitted calculation of the IC50 value.

Legumain [2] = biological target: T2, Legumain (Schistosoma mansoni, UniProt Q9NFY9)
T2 sequence (Q9NFY9 whole entry): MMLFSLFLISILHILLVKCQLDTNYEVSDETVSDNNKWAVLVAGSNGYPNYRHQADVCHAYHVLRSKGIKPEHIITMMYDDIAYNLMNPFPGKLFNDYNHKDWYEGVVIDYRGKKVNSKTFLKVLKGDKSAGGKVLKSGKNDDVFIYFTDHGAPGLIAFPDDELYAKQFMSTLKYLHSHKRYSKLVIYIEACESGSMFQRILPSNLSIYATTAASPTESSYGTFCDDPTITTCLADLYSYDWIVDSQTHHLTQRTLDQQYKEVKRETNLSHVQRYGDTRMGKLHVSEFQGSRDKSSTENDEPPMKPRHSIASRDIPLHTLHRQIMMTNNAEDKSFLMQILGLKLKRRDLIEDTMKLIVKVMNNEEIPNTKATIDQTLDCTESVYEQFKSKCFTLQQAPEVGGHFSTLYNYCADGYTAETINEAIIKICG
Method: as §1

Legumain [3] = biological target: T3, Legumain (Ixodes ricinus, UniProt Q6PRC7); details: 25 °C
T3 sequence (Q6PRC7 whole entry): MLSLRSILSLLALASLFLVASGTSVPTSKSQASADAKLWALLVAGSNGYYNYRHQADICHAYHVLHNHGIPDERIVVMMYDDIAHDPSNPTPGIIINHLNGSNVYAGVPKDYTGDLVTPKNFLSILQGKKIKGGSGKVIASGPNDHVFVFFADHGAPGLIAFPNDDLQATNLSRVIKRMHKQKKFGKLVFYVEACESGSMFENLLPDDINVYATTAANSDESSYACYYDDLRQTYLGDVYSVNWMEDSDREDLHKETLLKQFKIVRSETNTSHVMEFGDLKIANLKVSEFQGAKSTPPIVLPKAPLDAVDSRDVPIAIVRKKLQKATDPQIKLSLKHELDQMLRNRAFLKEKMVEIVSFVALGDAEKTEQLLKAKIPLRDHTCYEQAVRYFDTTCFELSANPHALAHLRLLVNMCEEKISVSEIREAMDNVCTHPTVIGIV
Method: as §1

Compound | IC50 ([1]; pH 6.8, 22 °C) [nM] | IC50 (Legumain [2]; pH 6.8, 22 °C) [nM] | IC50 (Legumain [3]) [nM] | IC50 ([1]; 25 °C) [nM] | IC50 (Legumain [2]; 25 °C) [nM]
C[C@H](NC(=O)OCc1ccccc1)C(=O)N[C@@H](C)C(=O)NN(CC(N)=O)C(=O)C=CC(=O)NCc1ccc(F)cc1 [benzyl N-[(1S)-1-{[(2S)-1-[(2E)-3-[N-(carbamoylmethyl)hydrazido]-N-[(4-fluorophenyl)methyl]prop-2-enamide]-1-oxopropan-2-yl]carbamoyl}ethyl]carbamate] | 75 | 800 | 250 | – | –
C[C@H](NC(=O)OCc1ccccc1)C(=O)N[C@@H](C)C(=O)NN(CC(N)=O)C(=O)C=CC(=O)N(Cc1ccccc1)Cc1ccc(F)cc1 [benzyl N-[(1S)-1-{[(2S)-1-[(2E)-N-benzyl-3-[N-(carbamoylmethyl)hydrazido]-N-[(4-fluorophenyl)methyl]prop-2-enamide]-1-oxopropan-2-yl]carbamoyl}ethyl]carbamate] | – | – | 700 | < 1 | 60
C[C@H](NC(=O)OCc1ccccc1)C(=O)N[C@@H](C)C(=O)NN(CC(N)=O)C(=O)C=CC(=O)N(C)C(Cc1ccccc1)C(=O)N(C)CCc1ccccc1 (stereo partly drawn) [benzyl N-[(1S)-1-{[(2S)-1-[(2E)-3-[N-(carbamoylmethyl)hydrazido]-N-methyl-N-{1-[methyl(2-phenylethyl)carbamoyl]-2-phenylethyl}prop-2-enamide]-1-oxopropan-2-yl]carbamoyl}ethyl]carbamate] | – | – | 300 | 80 | 750
C[C@H](NC(=O)OCc1ccccc1)C(=O)N[C@@H](C)C(=O)NN(CC(N)=O)C(=O)C=CC(=O)NCCc1ccccc1 [benzyl N-[(1S)-1-{[(2S)-1-[(2E)-3-[N-(carbamoylmethyl)hydrazido]-N-(2-phenylethyl)prop-2-enamide]-1-oxopropan-2-yl]carbamoyl}ethyl]carbamate] | 10 | 600 | 350 | – | –
C[C@H](NC(=O)OCc1ccccc1)C(=O)N[C@@H](C)C(=O)NN(CC(N)=O)C(=O)C=CC(=O)N(Cc1ccccc1)Cc1ccc2ccccc2c1 [benzyl N-[(1S)-1-{[(2S)-1-[(2E)-N-benzyl-3-[N-(carbamoylmethyl)hydrazido]-N-(naphthalen-2-ylmethyl)prop-2-enamide]-1-oxopropan-2-yl]carbamoyl}ethyl]carbamate] | – | – | 8 | 6 | 70
C[C@H](NC(=O)OCc1ccccc1)C(=O)N[C@@H](C)C(=O)NN(CC(N)=O)C(=O)C=CC(=O)N(C)c1ccccc1 [benzyl N-[(1S)-1-{[(2S)-1-[(2E)-3-[N-(carbamoylmethyl)hydrazido]-N-methyl-N-phenylprop-2-enamide]-1-oxopropan-2-yl]carbamoyl}ethyl]carbamate] | 5 | 60 | 1.8 | – | –
C[C@H](NC(=O)OCc1ccccc1)C(=O)N[C@@H](C)C(=O)NN(CC(N)=O)C(=O)C=Cc1cccnc1 [benzyl N-[(1S)-1-{[(2S)-1-[(2E)-N-(carbamoylmethyl)-3-(pyridin-3-yl)prop-2-enehydrazido]-1-oxopropan-2-yl]carbamoyl}ethyl]carbamate] | – | > 2000 | 15000 | 8000 | –
C[C@H](NC(=O)OCc1ccccc1)C(=O)N[C@@H](C)C(=O)NN(CC(N)=O)C(=O)C=CC(=O)N1CCc2ccccc21 [benzyl N-[(1S)-1-{[(1S)-1-[N'-(carbamoylmethyl)-N'-[(2E)-4-(2,3-dihydro-1H-indol-1-yl)-4-oxobut-2-enoyl]hydrazinecarbonyl]ethyl]carbamoyl}ethyl]carbamate] | – | – | 18 | 50 | 70
C[C@H](NC(=O)OCc1ccccc1)C(=O)N[C@@H](C)C(=O)NN(CC(N)=O)C(=O)C=CC(=O)N(Cc1ccccc1)c1ccccc1 [benzyl N-[(1S)-1-{[(2S)-1-[(2E)-N-benzyl-3-[N-(carbamoylmethyl)hydrazido]-N-phenylprop-2-enamide]-1-oxopropan-2-yl]carbamoyl}ethyl]carbamate] | – | 70 | < 1 | < 1 | –
C[C@H](NC(=O)OCc1ccccc1)C(=O)N[C@@H](C)C(=O)NN(CC(N)=O)C(=O)C=CC(=O)N(Cc1ccco1)Cc1ccco1 [benzyl N-[(1S)-1-{[(1S)-1-{N'-[(2E)-3-[bis(furan-2-ylmethyl)carbamoyl]prop-2-enoyl]-N'-(carbamoylmethyl)hydrazinecarbonyl}ethyl]carbamoyl}ethyl]carbamate] | – | – | 15000 | 5000 | 900
C[C@H](NC(=O)OCc1ccccc1)C(=O)N[C@@H](C)C(=O)NN(CC(N)=O)C(=O)C=CC(=O)NCc1ccccc1 [benzyl N-[(1S)-1-{[(2S)-1-[(2E)-N-benzyl-3-[N-(carbamoylmethyl)hydrazido]prop-2-enamide]-1-oxopropan-2-yl]carbamoyl}ethyl]carbamate] | 10 | 1000 | 200 | – | –
C[C@H](NC(=O)OCc1ccccc1)C(=O)N[C@@H](C)C(=O)NN(CC(N)=O)C(=O)C=CC(=O)N(C)Cc1cccc2ccccc12 [benzyl N-[(1S)-1-{[(2S)-1-[(2E)-3-[N-(carbamoylmethyl)hydrazido]-N-methyl-N-(naphthalen-1-ylmethyl)prop-2-enamide]-1-oxopropan-2-yl]carbamoyl}ethyl]carbamate] | – | 35 | 5.5 | < 1 | –
